Measurements as given in BindingDB's records for doi:10.1016/s0024-3205(03)00272-8 (Merck Research Laboratories, 2003).

Key:
[1] = target: Metabotropic glutamate receptor 2 (Homo sapiens, UniProt Q14416)
[2] = target: T1, Alpha-2C adrenergic receptor (Rattus norvegicus, UniProt P22086)
T1 sequence (P22086 whole entry): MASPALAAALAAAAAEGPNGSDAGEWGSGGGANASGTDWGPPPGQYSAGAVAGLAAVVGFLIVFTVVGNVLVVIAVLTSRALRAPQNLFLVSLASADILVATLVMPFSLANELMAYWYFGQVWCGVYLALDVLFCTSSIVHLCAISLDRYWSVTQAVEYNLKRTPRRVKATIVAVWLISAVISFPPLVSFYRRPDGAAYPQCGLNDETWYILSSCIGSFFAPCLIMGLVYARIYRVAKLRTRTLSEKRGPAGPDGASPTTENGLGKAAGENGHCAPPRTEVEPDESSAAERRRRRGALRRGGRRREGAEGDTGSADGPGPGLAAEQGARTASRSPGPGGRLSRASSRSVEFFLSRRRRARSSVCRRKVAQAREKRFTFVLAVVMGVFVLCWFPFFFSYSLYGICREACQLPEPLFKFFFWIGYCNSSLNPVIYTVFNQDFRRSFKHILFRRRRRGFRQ

[3] = target: T2, Retinoic acid receptor RXR-alpha (Rattus norvegicus, UniProt Q05343)
T2 sequence (Q05343 whole entry): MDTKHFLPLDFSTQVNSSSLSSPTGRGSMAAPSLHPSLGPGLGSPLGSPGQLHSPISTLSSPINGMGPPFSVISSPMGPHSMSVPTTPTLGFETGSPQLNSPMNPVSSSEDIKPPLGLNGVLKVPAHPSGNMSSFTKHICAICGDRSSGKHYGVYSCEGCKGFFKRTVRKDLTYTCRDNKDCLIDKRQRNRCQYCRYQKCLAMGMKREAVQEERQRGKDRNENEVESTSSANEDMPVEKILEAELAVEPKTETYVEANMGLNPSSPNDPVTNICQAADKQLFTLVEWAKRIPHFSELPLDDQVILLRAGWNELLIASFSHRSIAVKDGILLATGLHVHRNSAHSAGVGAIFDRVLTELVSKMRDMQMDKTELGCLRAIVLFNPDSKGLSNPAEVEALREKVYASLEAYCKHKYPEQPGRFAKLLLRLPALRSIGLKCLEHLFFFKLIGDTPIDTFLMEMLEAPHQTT

[4] = target: Metabotropic glutamate receptor 1 (Rattus norvegicus, UniProt P23385)
Sequence of Metabotropic glutamate receptor 1 (P23385 whole entry): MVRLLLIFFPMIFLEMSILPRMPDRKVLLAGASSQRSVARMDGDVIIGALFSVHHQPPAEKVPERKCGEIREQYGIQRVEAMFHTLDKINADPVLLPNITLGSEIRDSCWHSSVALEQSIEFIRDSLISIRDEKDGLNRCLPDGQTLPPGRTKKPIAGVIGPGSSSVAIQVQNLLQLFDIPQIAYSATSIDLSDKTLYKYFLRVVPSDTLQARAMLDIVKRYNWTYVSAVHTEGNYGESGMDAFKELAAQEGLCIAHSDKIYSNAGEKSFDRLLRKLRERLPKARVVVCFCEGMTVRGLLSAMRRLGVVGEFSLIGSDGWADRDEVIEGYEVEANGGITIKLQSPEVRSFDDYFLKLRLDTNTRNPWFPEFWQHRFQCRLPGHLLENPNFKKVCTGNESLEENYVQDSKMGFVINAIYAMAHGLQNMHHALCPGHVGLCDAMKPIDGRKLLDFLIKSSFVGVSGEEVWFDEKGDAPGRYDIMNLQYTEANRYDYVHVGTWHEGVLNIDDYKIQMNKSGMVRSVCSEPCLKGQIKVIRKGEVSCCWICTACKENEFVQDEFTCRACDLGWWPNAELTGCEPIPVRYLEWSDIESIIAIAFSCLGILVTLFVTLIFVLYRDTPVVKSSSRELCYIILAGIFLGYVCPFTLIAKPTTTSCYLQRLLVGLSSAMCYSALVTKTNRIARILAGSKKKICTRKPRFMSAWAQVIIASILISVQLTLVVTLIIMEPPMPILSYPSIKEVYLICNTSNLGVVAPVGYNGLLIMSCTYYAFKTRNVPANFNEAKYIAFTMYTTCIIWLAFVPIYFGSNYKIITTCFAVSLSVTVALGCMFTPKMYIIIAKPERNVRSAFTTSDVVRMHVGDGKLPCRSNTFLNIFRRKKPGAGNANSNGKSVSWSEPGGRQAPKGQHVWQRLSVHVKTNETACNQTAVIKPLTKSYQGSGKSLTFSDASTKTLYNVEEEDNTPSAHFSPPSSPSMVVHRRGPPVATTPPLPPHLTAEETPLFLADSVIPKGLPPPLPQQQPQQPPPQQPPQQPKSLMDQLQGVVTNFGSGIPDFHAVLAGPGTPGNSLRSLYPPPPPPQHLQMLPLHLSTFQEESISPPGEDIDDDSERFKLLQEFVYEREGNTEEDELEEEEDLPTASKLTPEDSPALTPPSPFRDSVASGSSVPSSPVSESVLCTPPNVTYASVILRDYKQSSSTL

Sequence of Metabotropic glutamate receptor 2 (Q14416 whole entry): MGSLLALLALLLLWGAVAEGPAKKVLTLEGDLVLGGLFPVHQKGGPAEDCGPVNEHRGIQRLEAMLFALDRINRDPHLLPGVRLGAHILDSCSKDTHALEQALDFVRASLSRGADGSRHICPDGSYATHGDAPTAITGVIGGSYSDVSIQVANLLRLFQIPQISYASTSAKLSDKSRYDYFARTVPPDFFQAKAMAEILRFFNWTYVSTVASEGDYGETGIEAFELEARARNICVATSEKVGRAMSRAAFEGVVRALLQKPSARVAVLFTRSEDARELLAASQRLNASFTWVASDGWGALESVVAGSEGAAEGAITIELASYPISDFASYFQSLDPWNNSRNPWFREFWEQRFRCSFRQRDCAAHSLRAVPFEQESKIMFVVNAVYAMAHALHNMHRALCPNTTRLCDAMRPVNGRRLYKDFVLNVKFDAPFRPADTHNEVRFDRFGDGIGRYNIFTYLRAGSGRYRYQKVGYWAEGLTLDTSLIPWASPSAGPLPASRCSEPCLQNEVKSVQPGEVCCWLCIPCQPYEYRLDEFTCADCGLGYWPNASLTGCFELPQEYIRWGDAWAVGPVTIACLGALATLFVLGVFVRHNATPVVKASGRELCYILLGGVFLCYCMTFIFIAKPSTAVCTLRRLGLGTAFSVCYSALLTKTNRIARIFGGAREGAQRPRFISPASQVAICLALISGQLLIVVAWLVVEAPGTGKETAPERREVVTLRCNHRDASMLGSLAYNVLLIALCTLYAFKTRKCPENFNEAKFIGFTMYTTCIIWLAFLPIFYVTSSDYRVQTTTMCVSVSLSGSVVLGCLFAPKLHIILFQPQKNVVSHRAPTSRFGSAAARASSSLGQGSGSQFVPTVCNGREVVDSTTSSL

SMILES: NC1(C(=O)O)CCc2cc(C(=O)O)ccc21 (racemic) [AIDA]
- Ki [1]: 1.1 µM

SMILES: COc1cccc(OC)c1OCCNCC1CSc2ccccc2O1 (centres undefined) [NSC_2325]
- Ki [2]: 7.6 µM

SMILES: CC12NC(Cc3ccccc31)c1ccccc12 (centres undefined) [CAS_180081]
- Ki [3]: 7.6 µM

SMILES: NC(C(=O)O)c1ccc(C(=O)O)cc1 (centres undefined) [4-(Amino-carboxy-methyl)-benzoic acid]
- Ki [4]: 1.1 µM
